These are literature values, as cited in patent publication US20100029602A1, “LOW-DOSE MOMETASONE FORMULATIONS” (Perrigo Israel Pharmaceuticals Ltd., priority 2007, published 2010).

For `C[C@@H]1C[C@H]2[C@@H]3CCC4=CC(=O)C=C[C@]4(C)[C@@]3(Cl)[C@@H](O)C[C@]2(C)[C@@]1(OC(=O)c1ccco1)C(=O)CCl` [Mometasone furoate], under “ethyl alcohol”, the “solubility in ethyl alcohol” value is reported as “moderately soluble”. For the same compound, the solubility in octanol entry (octanol) was “slightly soluble”. The solubility in water entry (water) is reported as “practically insoluble”.
